Results as given in US20140031227A1, “HERBICIDAL COMPOSITIONS COMPRISING 4-AMINO-3-CHLORO-5-FLUORO-6-(4-CHLORO-2-FLUORO-3-METHOXYPHENYL) PYRIDINE-2-CARBOXYLIC ACID OR A DERIVATIVE THEREOF AND GLYPHOSATE OR GLUFOSINATE” (DOW AGROSCIENCES LLC, priority 2012, published 2014).
Structures can show the parent of a compound that is named as a salt.

Assays:
Assay type in all cases: in vivo
[1] = tested on: ECHCG (Echinochloa crusgalli (L.) Beauv., barnyardgrass); test: Example I postemergence foliar-applied mixtures, direct seeded rice weeds, greenhouse: ECHCG
Experimental: (§1) Seeds or nutlets of the desired test plant species were planted in a soil matrix prepared by mixing a loam or sandy loam soil (e.g., 28.6 percent silt, 18.8 percent clay, and 52.6 percent sand, with a pH of about 5.8 and an organic matter content of about 1.8 percent) and calcareous grit in an 80 to 20 ratio. The soil matrix was contained in plastic pots with a volume of 1 quart and a surface area of 83.6 square centimeters (cm^2). […] The plants were grown for 8-22 days in a greenhouse with an approximate 14 hr photoperiod which was maintained at about 29° C. during the day and 26° C. during the night. Nutrients (Peters Excel® 15-5-15 5-Ca 2-Mg and iron chelate) were applied in the irrigation solution as needed and water was added on a regular basis. Supplemental lighting was provided with overhead metal halide 1000-Watt lamps as necessary. The plants were employed for testing when they reached the first through fourth true leaf stage.
(§2) Treatments consisted of the acid or esters of 4-amino-3-chloro-5-fluoro-6-(4-chloro-2-fluoro-3-methoxy-phenyl)pyridine-2-carboxylic acid (Compound A), each formulated as an SC (suspension concentrate), and various herbicidal components alone and in combination. Forms of compound A were applied on an acid equivalent basis.
(§3) For treatments comprised of formulated compounds, measured amounts of compounds were placed individually in 25 mL glass vials and diluted in a volume of 1.25% (v/v) Agri-Dex® crop oil concentrated to obtain 12× stock solutions. […] Application solutions were prepared by adding an appropriate amount of each stock solution (e.g., 1 mL) and diluted to the appropriate final concentrations with the addition of 10 mL of an aqueous mixture of 1.25% (v/v) crop oil concentrate so that the final spray solutions contained 1.25+/−0.05% (v/v) crop oil concentrate.
(§4) All stock solutions and applications solutions were visually inspected for compound compatibility prior to application. Spray solutions were applied to the plant material with an overhead Mandel track sprayer equipped with a 8002E nozzles calibrated to deliver 187 L/ha over an application area of 0.503 m^2 at a spray height of 18 to 20 inches (46 to 50 cm) above average plant canopy height. Control plants were sprayed in the same manner with the solvent blank.
(§5) The treated plants and control plants were placed in a greenhouse as described above and watered by sub-irrigation to prevent wash-off of the test compounds. After approximately 3 weeks, the condition of the test plants as compared with that of the untreated plants was determined visually and scored on a scale of 0 to 100 percent where 0 corresponds to no injury or growth inhibition and 100 corresponds to complete kill.
(§6) Colby's equation was used to determine the herbicidal effects expected from the mixtures (Colby, S. R. 1967. Calculation of the synergistic and antagonistic response of herbicide combinations. Weeds 15:20-22.).

[2] = tested on: ECHCO (Echinochloa colona (L.) Link, junglerice); test: Example I postemergence foliar-applied mixtures, direct seeded rice weeds, greenhouse: ECHCO
Experimental: as §1, §2, §3, §4, §5, §6

[3] = tested on: LEFCH (Leptochloa chinensis (L.) Nees, Chinese sprangletop); test: Example I postemergence foliar-applied mixtures, direct seeded rice weeds, greenhouse: LEFCH
Experimental: as §1, §2, §3, §4, §5, §6

[4] = tested on: IPOHE (Ipomoea hederacea Jacq., ivyleaf morningglory); test: Example I postemergence foliar-applied mixtures, direct seeded rice weeds, greenhouse: IPOHE
Experimental: as §1, §2, §3, §4, §5, §6

[5] = tested on: DIGSA (Digitaria sanguinalis (L.) Scop., large crabgrass); test: Example I postemergence foliar-applied mixtures, direct seeded rice weeds, greenhouse: DIGSA
Experimental: as §1, §2, §3, §4, §5, §6

[6] = tested on: SORHA (Sorghum halepense (L.) Pers., johnsongrass); test: Example III postemergence foliar-applied mixtures, row crop weeds (corn, soybean), greenhouse: SORHA
Experimental: Seeds or nutlets of the desired test plant species were planted in a soil matrix prepared by mixing a loam or sandy loam soil (e.g., 43 percent silt, 19 percent clay, and 38 percent sand, with a pH of about 8.1 and an organic matter content of about 1.5 percent) and calcareous grit in an 80 to 20 ratio. The soil matrix was contained in plastic pots with a surface area of 84.6 square centimters (cm^2) and a volume of 560 cubic centimeters (cm^3). […] The plants were grown for 7-31 days (d) in a greenhouse with an approximate 15 hour (h) photoperiod which was maintained at about 23-29° C. during the day and 22-28° C. during the night. Nutrients (Peters Excel® 15-5-15 5-Ca 2-Mg) and water were added on a regular basis and supplemental lighting was provided with overhead metal halide 1000-Watt lamps as necessary. The plants were employed for testing when they reached the first, second, or third true leaf stage.
Treatments consisted of the acid or esters of 4-amino-3-chloro-5-fluoro-6-(4-chloro-2-fluoro-3-methoxy-phenyl)pyridine-2-carboxylic acid (Compound A), each formulated as an
SC (suspension concentrate), and various herbicidal components alone and in combination. Forms of compound A were applied on an acid equivalent basis.
Other herbicidal components were applied on an acid equivalent or active ingredient basis and included the 5-enolpyruvylshikimate-3-phosphate synthase (EPSPS)-inhibiting herbicide, glyphosate dimethylamine salt, formulated as Durango DMA® and the glutamine synthase (GS)-inhibiting herbicide, glufosinate ammonium, formulated as Ignite® 280.
For treatments comprised of formulated compounds, measured amounts of compounds were placed individually in 25 mL glass vials and diluted in a volume of 1.5% (v/v) Agri-dex® crop oil concentrate to obtain 6× stock solutions. […] Application solutions were prepared by adding an appropriate amount of each stock solution (typically 2 mL) and diluted to the appropriate final concentrations with the addition of an aqueous mixture of 1.5% (v/v) crop oil concentrate and water so that the final spray solutions contained 1.25% (v/v) crop oil concentrate.
All stock solutions and applications solutions were visually inspected for compound compatibility prior to application. Compound requirements are based upon a 12 mL application volume at a rate of 187 liters per hectare (L/ha). Formulated compounds were applied to the plant material with an overhead Mandel track sprayer equipped with 8002E nozzles calibrated to deliver 187 L/ha over an application area of 0.503 square meters (m^2) at a spray height of 18 to 20 inches (46 to 50 cm) above the average plant canopy height. Control plants were sprayed in the same manner with the solvent blank.
as §5, with “2” for “3”
The following equation was used to calculate the expected activity of mixtures containing two active ingredients, A and B: […]

[7] = Compound A Acid alone, 4.38 gae/ha
[8] = Compound A Acid alone, 8.75 gae/ha
[9] = Compound A Acid alone, 19.4 gae/ha
[10] = Compound A Acid alone, 17.5 gae/ha
[11] = Compound A Acid alone, 3.75 gae/ha
[12] = Compound A Benzyl Ester alone, 4.38 gae/ha
[13] = Compound A Benzyl Ester alone, 8.75 gae/ha
[14] = Compound A Benzyl Ester alone, 17.5 gae/ha
[15] = Compound A Benzyl Ester alone, 8 gae/ha
[16] = Compound A Benzyl Ester alone, 16 gae/ha
[17] = glufosinate ammonium alone, 135.5 gae/ha
[18] = glufosinate ammonium alone, 271 gae/ha

COc1c(Cl)ccc(-c2nc(C(=O)O)c(Cl)c(N)c2F)c1F [Compound A Acid, 4-amino-3-chloro-6-(4-chloro-2-fluoro-3-methoxyphenyl)-5-fluoropyridine-2-carboxylic acid]
Visual Weed Control (%) - 21 DAA ECHCG Obs [1, 7]: 15% | Visual Weed Control (%) - 21 DAA ECHCG Obs [1, 8]: 50% | Visual Weed Control (%) - 21 DAA ECHCO Obs ([2]; Compound A Acid alone, 4.38 gae/ha (Table 2)): 60% | Visual Weed Control (%) - 21 DAA ECHCO Obs ([2]; Compound A Acid alone, 4.38 gae/ha (Tables 1, 9)): 70% | Visual Weed Control (%) - 21 DAA ECHCO Obs ([2]; Compound A Acid alone, 8.75 gae/ha (Table 2)): 90% | Visual Weed Control (%) - 21 DAA ECHCO Obs ([2]; Compound A Acid alone, 8.75 gae/ha (Tables 1, 9)): 75% | Visual Weed Control (%) - 21 DAA LEFCH Obs ([3]; Compound A Acid alone, 17.5 gae/ha (Table 2)): 30% | Visual Weed Control (%) - 21 DAA LEFCH Obs ([3]; Compound A Acid alone, 17.5 gae/ha (Tables 1, 9)): 0% | Visual Weed Control (%) - 20 DAA LEFCH Obs [3, 9]: 5% | Visual Weed Control (%) - 21 DAA IPOHE Obs [4, 7]: 10% | Visual Weed Control (%) - 21 DAA IPOHE Obs [4, 8]: 35% | Visual Weed Control (%) - 21 DAA IPOHE Obs [4, 10]: 45% | Visual Weed Control (%) - 21 DAA DIGSA Obs [5, 7]: 35% | Visual Weed Control (%) - 21 DAA DIGSA Obs [5, 8]: 50% | Visual Weed Control (%) - 21 DAA DIGSA Obs [5, 10]: 40% | Visual Weed Control (%) - 20 DAA DIGSA Obs [5, 9]: 13% | Visual Weed Control (%) - 13 DAA SORHA Obs [6, 11]: 0% | Visual Weed Control (%) - 16 DAA SORHA Obs [6, 11]: 0% | Visual Weed Control (%) - 13 DAA SORHA Obs ([6]; Compound A Acid alone, 7.5 gae/ha): 0% | Visual Weed Control (%) - 13 DAA SORHA Obs ([6]; Compound A Acid alone, 15 gae/ha): 0%

COc1c(Cl)ccc(-c2nc(C(=O)OCc3ccccc3)c(Cl)c(N)c2F)c1F [Compound A Benzyl Ester]
Visual Weed Control (%) - 21 DAA ECHCG Obs [1, 12]: 10% | Visual Weed Control (%) - 21 DAA ECHCG Obs [1, 13]: 85% | Visual Weed Control (%) - 21 DAA ECHCO Obs [2, 12]: 70% | Visual Weed Control (%) - 21 DAA ECHCO Obs [2, 13]: 75% | Visual Weed Control (%) - 21 DAA LEFCH Obs [3, 12]: 0% | Visual Weed Control (%) - 21 DAA LEFCH Obs [3, 13]: 40% | Visual Weed Control (%) - 21 DAA LEFCH Obs [3, 14]: 45% | Visual Weed Control (%) - 21 DAA IPOHE Obs [4, 12]: 10% | Visual Weed Control (%) - 21 DAA IPOHE Obs [4, 15]: 10% | Visual Weed Control (%) - 21 DAA IPOHE Obs [4, 13]: 10% | Visual Weed Control (%) - 20 DAA IPOHE Obs [4, 16]: 18% | Visual Weed Control (%) - 21 DAA IPOHE Obs [4, 16]: 10% | Visual Weed Control (%) - 21 DAA IPOHE Obs [4, 14]: 25% | Visual Weed Control (%) - 21 DAA IPOHE Obs ([4]; Compound A Benzyl Ester alone, 32 gae/ha): 45% | Visual Weed Control (%) - 21 DAA DIGSA Obs [5, 15]: 25% | Visual Weed Control (%) - 20 DAA DIGSA Obs [5, 16]: 18% | Visual Weed Control (%) - 21 DAA DIGSA Obs [5, 16]: 30% | Visual Weed Control (%) - 13 DAA SORHA Obs ([6]; Compound A Benzyl Ester alone, 3.75 gae/ha): 0% | Visual Weed Control (%) - 13 DAA SORHA Obs ([6]; Compound A Benzyl Ester alone, 7.5 gae/ha): 0% | Visual Weed Control (%) - 13 DAA SORHA Obs ([6]; Compound A Benzyl Ester alone, 15 gae/ha): 10%

CP(=O)(O)CCC(N)C(=O)O (stereo not drawn) [Glufosinate ammonium salt, 2-amino-4-(hydroxymethylphosphinyl)butanoic acid monoammonium salt, reference compound]
Visual Weed Control (%) - 21 DAA ECHCG Obs [1, 17]: 60% | Visual Weed Control (%) - 21 DAA ECHCG Obs [1, 18]: 10% | Visual Weed Control (%) - 21 DAA ECHCO Obs [2, 17]: 0% | Visual Weed Control (%) - 21 DAA ECHCO Obs [2, 18]: 0% | Visual Weed Control (%) - 21 DAA LEFCH Obs [3, 17]: 0% | Visual Weed Control (%) - 21 DAA LEFCH Obs [3, 18]: 10% | Visual Weed Control (%) - 21 DAA IPOHE Obs ([4]; glufosinate ammonium alone, 112.5 gai/ha): 10% | Visual Weed Control (%) - 20 DAA IPOHE Obs ([4]; glufosinate ammonium alone, 542 gai/ha): 50% | Visual Weed Control (%) - 21 DAA DIGSA Obs [5, 17]: 0% | Visual Weed Control (%) - 13 DAA SORHA Obs [6, 18]: 20% | Visual Weed Control (%) - 13 DAA SORHA Obs ([6]; glufosinate ammonium alone, 542 gae/ha): 25%
